US20160045505A1, “COMPOUNDS AND COMPOSITIONS FOR THE TREATMENT OF PARASITIC DISEASES” (NOVARTIS AG, priority 2013, published 2016)
pEC50: −log10 of the molar value. Where two headings read alike, the source gives them in different places.

What was measured:
[1] = test system: Leishmania donovani axenic amastigote parasites; assay: Leishmania donovani axenic amastigote proliferation assay (Cell TiterGlo luminescence, 2 day incubation); format: cell-based; settings: read-out: L. donovani amastigotes EC50
[2] = test system: L. donovani HU3 strain in mouse peritoneal macrophages; assay: Assay for proliferation of Leishmania parasites in infected mouse peritoneal macrophages (SybrGreen staining, high-content imaging, 5 days); format: cell-based, Leishmania donovani; settings: L. donovani in mouse peritoneal macrophages, inhibition of proliferation, read-out: L. donovani Macrophage EC50
[3] = test system: Trypanosoma brucei Lister 427 strain, bloodstream form; assay: Assay for proliferation of kinetoplastid parasite Trypanosoma brucei (Cell Titer Glo, 48 hours); format: cell-based; settings: T. brucei Lister 427 bloodstream form, read-out: T. brucei EC50
Description: Assay for Proliferation of Kinetoplastid Parasite Trypanosoma brucei.
The proliferation is quantified by the addition of Cell Titer Glo (Promega®) a luminescent cell viability assay that measures the number of viable cells in culture based on the quantification of cellular ATP amount, which is an indicator of metabolically active cells.
The following assay illustrates the invention without in any way limiting the scope of the invention. This parasite proliferation assay measures the increase in parasite growth using an assay that measures ATP activity, Cell Titer Glo®.
Trypanosoma brucei Lister 427 strain is grown in HMI-9 Trypanosome media for T. brucei bloodstream form. 30 μl of HMI-9 media is dispensed into 384 well assay plates. 200 nl of compounds of the invention (in DMSO), including anti-trypanosome controls (Pentamidine and suramin), are then transferred into the assay plates, as well as DMSO alone to serve as a negative control for inhibition. Then 25 μl of a suspension of T. brucei culture in HMI-9 media is dispensed into the assay plates. The final concentration of parasites in culture corresponds to 1.7% of 0.5 uM ATP activity with Cell Titer Glo® in HMI-9 media. The plates are placed in a 37° C. incubator for 48 hours in an atmospheric environment containing 5% CO2. 40 μl of Cell Titer Glo® is dispensed into the plates. The plates are then read for luminescence. The percentage inhibition of 50%, EC50, is calculated for each compound.

[4] = Leishmania donovani, axenic amastigotes, inhibition of proliferation
[5] = Leishmania donovani, Peritoneal macrophage
[6] = Trypanosoma brucei, inhibition of proliferation
[7] = Leishmania donovani, L. donovani axenic amastigotes

Compound | pEC50 [1, 4] | pEC50 [2, 5] | pEC50 [3, 6] | other results
CC(C)OC(=O)Nc1cnc2nc(-c3cc(NC(=O)N4CCC(F)(F)C4)ccc3Cl)cn2c1 [Compound 4, isopropyl (2-(2-chloro-5-(3,3-difluoropyrrolidine-1-carboxamido)phenyl)imidazo[1,2-a]pyrimidin-6-yl)carbamate] | 5.87 | 5.65 | 5.63 | 
CCN(C)C(=O)Nc1cccc(-c2cn3cc(NC(=O)OC(C)C)cnc3n2)c1 [Compound 6] | 4.65 | 5.04 | 6.18 | 
CCN(C)C(=O)Nc1ccc(F)c(-c2cn3cc(NC(=O)OC(C)C)cnc3n2)c1 [Compound 9] | 5.61 | 5.88 | 6.72 | 
CCOC(=O)Nc1cccc(-c2cn3cc(NC(=O)OC(C)C)cnc3n2)c1 [Compound 10] | 5.53 | 5.63 | 6.64 | 
CC(C)OC(=O)Nc1cnc2nc(-c3cccc(NC(=O)c4nccs4)c3)cn2c1 [Compound 11] | 5.42 | 5.30 | 6.18 | 
Cc1ccc(C(=O)Nc2cccc(-c3cn4cc(NC(=O)OC(C)C)cnc4n3)c2)o1 [Compound 13] | 5.76 | 6.09 | 6.74 | 
CCN(CC)C(=O)Nc1cccc(-c2cn3cc(NC(=O)OC(C)C)cnc3n2)c1 [Compound 16] | < 4.60 | 4.85 | 5.79 | 
CC(C)OC(=O)Nc1cnc2nc(-c3cccc(NC(=O)c4ccc(Cl)o4)c3)cn2c1 [Compound 18] | 6.39 | 6.76 | 7.25 | 
CC(C)OC(=O)Nc1cnc2nc(-c3cccc(NC(=O)N(C)C)c3)cn2c1 [Compound 20] | 4.87 | 5.10 | 5.70 | 
CC(C)OC(=O)Nc1cccc(-c2cn3cc(NC(=O)OC(C)C)cnc3n2)c1 [Compound 21] | 5.71 | 5.98 | 6.73 | 
Cc1nc(C)c(C(=O)Nc2cccc(-c3cn4cc(NC(=O)OC(C)C)cnc4n3)c2)o1 [Compound 22] | 5.91 | 6.28 | 6.42 | 
COC(=O)Nc1ccc(-c2cnc3nc(-c4cc(NC(=O)N5CCCC5)ccc4Cl)cn3c2)cc1 [Compound 24, methyl (4-(2-(2-chloro-5-(pyrrolidine-1-carboxamido)phenyl)imidazo[1,2-a]pyrimidin-6-yl)phenyl)carbamate] | 7.70 | 7.24 | 8.07 | 
O=C(Nc1ccc(Cl)c(-c2cn3cc(-c4ccc(F)cc4)cnc3n2)c1)N1CCCC1 [Compound 25] | 7.27 | 7.00 | 7.56 | 
CNc1ccc(-c2cnc3nc(-c4cc(NC(=O)N5CCCC5)ccc4Cl)cn3c2)cc1 [Compound 26, N-(4-chloro-3-(6-(4-(methylamino)phenyl)imidazo[1,2-a]pyrimidin-2-yl)phenyl)pyrrolidine-1-carboxamide] | 7.24 | 6.98 | 7.63 | 
COC(=O)Nc1ccc(-c2cnc3nc(-c4cc(NC(=O)c5ccc(C)o5)ccc4Cl)cn3c2)cc1 [Compound 27, methyl (4-(2-(2-chloro-5-(5-methylfuran-2-carboxamido)phenyl)imidazo[1,2-a]pyrimidin-6-yl)phenyl)carbamate] | 7.46 | 6.96 | 6.23 | 
O=C(Nc1ccc(Cl)c(-c2cn3cc(-c4ccsc4)cnc3n2)c1)N1CCCC1 [Compound 28] | 7.55 | 6.89 | 8.03 | 
Cc1ccc(C(=O)Nc2ccc(Cl)c(-c3cn4cc(-c5ccsc5)cnc4n3)c2)o1 [Compound 30] | 7.00 | 6.76 | 7.06 | 
Cc1ccc(C(=O)Nc2ccc(Cl)c(-c3cn4cc(-c5ccccc5)cnc4n3)c2)o1 [Compound 31, N-(4-chloro-3-(6-phenylimidazo[1,2-a]pyrimidin-2-yl)phenyl)-5-methylfuran-2-carboxamide] | 6.77 | 6.61 | 7.17 | 
COCCOC(=O)Nc1ccc(Cl)c(-c2cn3cc(-c4ccc(NC(=O)OC)cc4)cnc3n2)c1 [Compound 32, 2-methoxyethyl N-[4-chloro-3-(6-{4-[(methoxycarbonyl)amino]phenyl}imidazo[1,2-a]pyrimidin-2-yl)phenyl]carbamate] | 6.93 | 6.48 | 6.73 | 
CNc1ccc(-c2cnc3nc(-c4cc(NC(=O)c5ccc(C)o5)ccc4Cl)cn3c2)cc1 [Compound 33, N-(4-chloro-3-(6-(4-(methylamino)phenyl)imidazo[1,2-a]pyrimidin-2-yl)phenyl)-5-methylfuran-2-carboxamide] | 6.43 | 6.18 | 6.73 | 
COCCOC(=O)Nc1ccc(Cl)c(-c2cn3cc(-c4ccsc4)cnc3n2)c1 [Compound 34] | 6.59 | 6.12 | 6.31 | 

Compound | pEC50 [1, 4] | pEC50 [2, 5] | pEC50 [3, 6] | other results
COCCOC(=O)Nc1ccc(Cl)c(-c2cn3cc(-c4ccccc4)cnc3n2)c1 [Compound 35] | 6.14 | 6.06 | 5.95 | 
CCOC(=O)Nc1ccc(Cl)c(-c2cn3cc(-c4ccc(NC)cc4)cnc3n2)c1 [Compound 37] | 6.21 | 5.52 | 6.71 | 
O=C(Nc1ccc(Cl)c(-c2cn3cc(Cl)cnc3n2)c1)c1ccco1 [Compound 38] | 5.23 | 4.81 | 5.74 | 
O=C(Nc1ccc(Cl)c(-c2nc3ncc(-c4ccccc4)cn3c2F)c1)N1CCCC1 [Compound 39] | < 5.47 | 6.74 | 7.13 | 
CC(C)OC(=O)Nc1cnc2nc(-c3cc(NC(=O)c4cncn4C)ccc3F)cn2c1 [Compound 96] | < 4.80 | 4.37 | 5.83 | 
O=C(Nc1ccc(F)c(-c2cn3cc(Br)cnc3n2)c1)C1CCCC1 [Compound 196, N-(3-(6-bromoimidazo[1,2-a]pyrimidin-2-yl)-4-fluorophenyl)cyclopentanecarboxamide] | 5.19 |  | 5.73 | 
O=C(Nc1ccc(F)c(-c2cn3cc(Br)cnc3n2)c1)c1ccccc1 [Compound 197] | 5.60 |  | 6.31 | 
CON(C)C(=O)Nc1cccc(-c2cn3cc(NC(=O)OC(C)C)cnc3n2)c1 [Compound 215] |  |  |  | pEC50 ([1]; axenic amastigotes, inhibition of proliferation): 6.27; pEC50 [2]: 5.88; pEC50 ([3]; inhibition of proliferation): 6.74
CON(C)C(=O)Nc1ccc(F)c(-c2cn3cc(NC(=O)OC(C)C)cnc3n2)c1 [Compound 221] | 6.60 | 5.98 | 6.75 | 
CC(C)OC(=O)Nc1cnc2nc(-c3cc(NC(=O)N4CCC4)ccc3F)cn2c1 [Compound 226] | 7.38 | 6.42 | 7.43 | 
CC(C)OC(=O)Nc1cnc2nc(-c3cc(NC(=O)N4CC(O)C4)ccc3F)cn2c1 [Compound 288] | 5.11 | < 4.30 | 4.47 | 
CC(C)OC(=O)Nc1cnc2nc(-c3cc(NC(=O)N4CC(C#N)C4)ccc3F)cn2c1 [Compound 290] | 5.50 | < 4.34 | 4.90 | 
CC(C)OC(=O)Nc1cnc2nc(-c3cc(NC(=O)N4CC(Cl)C4)ccc3F)cn2c1 [Compound 291] | 6.41 | 6.01 | 6.69 | 
CS(=O)(=O)Nc1ccc(F)c(-c2cn3cc(Br)cnc3n2)c1 [Compound 316, N-(3-(6-bromoimidazo[1,2-a]pyrimidin-2-yl)-4-Fluorophenyl)methanesulfonamide] | < 4.60 | < 4.30 | < 4.30 | 
O=C(Nc1ccc(F)c(-c2cn3cc(Br)cnc3n2)c1)N1CCOCC1 [Compound 515] |  |  |  | pEC50 [1, 7]: 5.13; pEC50 ([3]; Trypanosoma brucei): 4.87
O=CNc1ccc(F)c(-c2cn3cc(Br)cnc3n2)c1 [Compound 531, N-(3-(6-bromoimidazo[1,2-a]pyrimidin-2-yl)-4-fluorophenyl)formamide] |  |  |  | pEC50 [1, 7]: < 4.60; pEC50 ([3]; Trypanosoma brucei): < 4.30
Nc1cnc2nc(-c3ccc(F)c(NC(=O)N4CCCC4)c3)cn2c1 [Compound 568, N-(5-(6-aminoimidazo[1,2-a]pyrimidin-2-yl)-2-fluorophenyl)pyrrolidine-1-carboxamide] |  |  |  | pEC50 ([3]; Trypanosoma brucei): 5.01
CC(=O)Nc1ccc(F)c(-c2cn3cc(N)cnc3n2)c1 [Compound 569] |  |  |  | pEC50 [1, 7]: < 4.60; pEC50 ([3]; Trypanosoma brucei): < 4.30
Nc1cnc2nc(-c3cccc(NC(=O)N4CCCC4)c3F)cn2c1 [Compound 580] |  |  |  | pEC50 [1, 7]: < 4.60; pEC50 ([3]; Trypanosoma brucei): < 4.30
Cc1nc(C)c(C(=O)Nc2ccc(F)c(-c3cn4cc(-c5ccc(CCO)cn5)cnc4n3)c2)o1 [Compound 585, N-(4-fluoro-3-(6-(5-(2-hydroxyethyl)pyridin-2-yl)imidazo[1,2-a]pyrimidin-2-yl)phenyl)-2,4-dimethyloxazole-5-carboxamide] |  |  |  | pEC50 ([3]; Trypanosoma brucei): 6.38
